In patent publication US6121239A, “Peptide substrates for the identification of factor Xa” (Serbio, priority 1990, dated 2000):
Non-standard residues stand in square brackets, D forms with d. Residues, ends and D or L forms follow the SMILES beside them. *: point of attachment. pNA = O=[N+]([O-])c1ccc(N*)cc1; X1 = COC(=O)CC(=O)*; Ms = CS(=O)(=O)*

The molecules below were run against Factor Xa (Homo sapiens, UniProt P00742) (assay: Activity towards Factor Xa: hydrolysis rate by variation in optical density with time (ΔOD/min)). Conditions: hydrolysis rate (ΔOD/min) at equimolar doses; activity of reference product CP 1 specified as 100%.
Type: biochemical
Protocol: The activity of the peptides according to the invention towards Factor Xa was determined by one of the conventional methods, such as the one described in EP-A-0 280 160 (see page 14), the hydrolysis rate being assessed by the variation in optical density with time (ΔOD/min). The results obtained at equimolar doses have been collated in Table III below, where the activity of the reference product CP 1 is specified as being equal to 100% for the sake of convenience.

Factor Xa, sequence (P00742 235-488 limits assumed): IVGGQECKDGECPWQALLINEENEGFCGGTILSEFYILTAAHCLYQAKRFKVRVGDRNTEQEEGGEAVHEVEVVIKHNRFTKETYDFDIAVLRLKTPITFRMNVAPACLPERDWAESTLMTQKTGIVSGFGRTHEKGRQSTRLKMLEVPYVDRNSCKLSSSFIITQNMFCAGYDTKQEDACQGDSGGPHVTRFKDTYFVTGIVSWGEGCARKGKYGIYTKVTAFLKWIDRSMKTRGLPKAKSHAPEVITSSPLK
Factor Xa, sequence (P00742 41-179 partner limits assumed): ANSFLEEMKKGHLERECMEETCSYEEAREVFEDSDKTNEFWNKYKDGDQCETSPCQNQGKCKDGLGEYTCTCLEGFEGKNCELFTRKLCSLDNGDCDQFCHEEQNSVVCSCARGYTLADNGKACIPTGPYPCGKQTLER

For `COCCOC(=O)N[C@H](CC(C)C)C(=O)NCC(=O)N[C@@H](CCCNC(=N)N)C(=O)Nc1ccc([N+](=O)[O-])cc1` [Ex. 61, Me-OCH2 CH2 O-CO-D-Leu-Gly-L-Arg-pNA.AcOH], which “Activity (activity towards Factor Xa)” value is on record?
Its value is 145%.

With `COCCOCCOCCOC(=O)N[C@H](CC(C)C)C(=O)NCC(=O)N[C@@H](CCCNC(=N)N)C(=O)Nc1ccc([N+](=O)[O-])cc1` [Ex. 63, MeO(CH2 CH2 O)3 -CO-D-Leu-Gly-L-Arg-pNA] as the molecule, how does the “Activity (activity towards Factor Xa)” value read?
Its value is 110%.

How did the “Activity (activity towards Factor Xa)” value turn out when `COCCOCCOCCOCCOCCOCCOCCOC(=O)N[C@H](CC(C)C)C(=O)NCC(=O)N[C@@H](CCCNC(=N)N)C(=O)Nc1ccc([N+](=O)[O-])cc1` [Ex. 64, Me-O(CH2 CH2 O)7 -CO-D-Leu-Gly-L-Arg-pNA.AcOH] was run?
Its value is 103%.

With `CCOC(=O)CC(=O)N[C@H](CC(C)C)C(=O)NCC(=O)N[C@@H](CCCNC(=N)N)C(=O)Nc1ccc([N+](=O)[O-])cc1` [Ex. 2, EM-D-Leu-Gly-L-Arg-pNA] as the molecule, how does the “Activity (activity towards Factor Xa)” value read?
Its value is 132%.

With `CC[C@@H](C)[C@@H](NC(=O)CC(=O)OC)C(=O)N[C@@H](CCC(=O)OC)C(=O)NCC(=O)N[C@@H](CCCNC(=N)N)C(=O)Nc1ccc([N+](=O)[O-])cc1` [Ex. 33, MM-D-Ile-L-Glu(OMe)-Gly-L-Arg-pNA] (X1-[dI]E(OMe)GR-pNA) as the molecule, how does the “Activity (activity towards Factor Xa)” value read?
Its value is 105%.

With `CCCC[C@@H](NC(=O)CC(=O)OC)C(=O)NCC(=O)N[C@@H](CCCNC(=N)N)C(=O)Nc1ccc([N+](=O)[O-])cc1` [Ex. 14, MM-D-Nle-Gly-L-Arg-pNA] as the molecule, how does the “Activity (activity towards Factor Xa)” value read?
The value was 140%.

For `CCCC[C@@H](NC(=O)OCCOCCOCCOC)C(=O)NCC(=O)N[C@@H](CCCNC(=N)N)C(=O)Nc1ccc([N+](=O)[O-])cc1` [Ex. 73], which “Activity (activity towards Factor Xa)” value is on record?
The value was 121%.

Which “Activity (activity towards Factor Xa)” value does the source give for `CCCCOCCOCCOCCOCCOCCOCCOCCOC(=O)N[C@H](CCCC)C(=O)NCC(=O)N[C@@H](CCCNC(=N)N)C(=O)Nc1ccc([N+](=O)[O-])cc1` [Ex. 101] here?
The value was 124%.

With `CC(C)C[C@@H](NS(C)(=O)=O)C(=O)NCC(=O)N[C@@H](CCCNC(=N)N)C(=O)Nc1ccc([N+](=O)[O-])cc1` [CP 1, reference compound] (Ms-[dL]-Gly-Arg-pNA) as the molecule, how does the “Activity (activity towards Factor Xa)” value read?
Its value is 100%.

`COC(=O)CC(=O)N[C@H](CC(C)C)C(=O)NCC(=O)N[C@@H](CCCNC(=N)N)C(=O)Nc1ccc([N+](=O)[O-])cc1` [Ex. 1, MM-D-Leu-Gly-L-Arg-pNA.AcOH] was tested. Which “Activity (activity towards Factor Xa)” value did it give?
The value was 115%.

With `COCCOCCOC(=O)N[C@H](CC(C)C)C(=O)NCC(=O)N[C@@H](CCCNC(=N)N)C(=O)Nc1ccc([N+](=O)[O-])cc1` [Ex. 62, Me-O(CH2 CH2 O)2 -CO-D-Leu-Gly-L-Arg-pNA.AcOH] as the molecule, how does the “Activity (activity towards Factor Xa)” value read?
The value was 105%.
